Where a name gives a salt, the structure may show the parent alone.

A short description of data set [1]: serum stability by rad-TLC, human serum. Type of data set: in vitro ADME. The settings on record: 37° C., up to 120 min. The method, then: (§1) The stability of both the probes in mouse and human serums was also measured along with a control at 0 min, 30 min, 60 min, and 120 min using rad-TLC as discussed later below. It was observed that [^18F]F-CNBI was stable >92% up to 120 min.
(§2) Serum Stability Analysis: Stability analysis of [^18F]F-CNBI and [^18F]F-CNPIFE were assessed in human and mouse serums. To perform this stability assay, 100 μL of [^18F]F-CNBI (˜0.74 MBq) or 100 μL of [^18F]F-CNPIFE (˜3.70 MBq) was added to 100 μL of human or mouse serum in a microcentrifuge tube. The resultant mixture of radiotracer and serum was incubated at 37° C. for 120 min. To assess the stability of the probes, a small aliquot (˜0.5 μL) was taken out from the mixture in duplicate at 0 min, 30 min, 60 min and 120 min during incubation, and analyzed on a rad-TLC using 1:9 methanol: chloroform as a mobile phase using i-TLC to estimate the radio-stability of [^18F]F-CNBI or [^18F]F-CNPIFE at different time points post-incubation. For control, 100 μL of [^18F]F-CNBI (˜0.74 MBq) was taken in a microcentrifuge without dilution or 100 μL of [^18F]F-CNPIFE (˜3.70 MBq) was added to 100 μL deionized water in a microcentrifuge tube. Both the controls, were incubated at 25° C. for 120 min. At 0 min, 30 min, 60 min and 120 min during incubation, small aliquot (˜0.5 μL) was taken from the controls in duplicate and rad-TLC was performed as mentioned above. […]

A short description of data set [2]: in vivo PET imaging in mice (Example 1), brain uptake. As to conditions: mouse brain. As for the experimental part: Initial in vivo study in mouse model: Initial in vivo PET imaging studies were conducted in mice at different time points. The uptake of the [^18F]CNPIFE (28) probe is expressed as a standard uptake value (SUV).
In vivo study in mouse model: In vivo PET imaging studies were conducted in mice at different time points to compare the SUV for [^18F]—CNBI (4) and [^18F]CNPIFE (28).

A short description of data set [3]: serum stability by rad-TLC, mouse serum. Type of data set: in vitro ADME. As to conditions: 37° C., up to 120 min. The method, then:
as §1, §2

The nature of data set [4]: dynamic micro-PET imaging and biodistribution in normal FVB/NJ mice with and without self-blocking. Type of data set: in vivo, mouse. The settings on record: for effect of co-administration of the reference compound on brain uptake: self-blocking study. The method, then: To pursue this, [^18F]F-CNBI and [^18F]F-CNPIFE were evaluated in the normal FVB/NJ mouse model.
The uptake of [^18F]F-CNPIFE (SUV=0.48±0.09; n=5) in brain was 2.5-fold higher than [^18F]F-CNBI (SUV=0.19±0.06; n=6) as early as 5 min post-injection. This difference increased with time: 4.8-fold higher SUV for [^18F]F-CNPIFE (SUV=0.48±0.11; n=5) as compared to [^18F]F-CNBI (SUV=0.10±0.01; n=6) at 15 min which further increased to 9.5-fold difference at 30 min (see FIG. 21). […] The differences in uptakes of [^18F]F-CNPIFE and [^18F]F-CNBI in the brain and liver likely relate to the difference in their chemical structures (compounds 4 and 28). Greater accumulation of [^18F]F-CNPIFE in the brain relative to [^18F]F-CNBI was consistent with its higher BBB permeability value indicated by the PAMPA assay (see Table 1).
To further understand the characteristics of the uptake of these PET probes in the brain, self-blocking studies with corresponding non-radiolabeled reference compounds were performed. In general, co-administration of [^18F]F-CNBI and [^18F]F-CNPIFE with their corresponding reference compounds, [^19F]F-CNBI and [^19F]F-CNPIFE, respectively, were expected to decrease the uptake of radiotracers in the brain. […] However, a non-significant trend in increase in brain uptake of [^18F]F-CNPIFE can be noticed on coadministration of nonradioactive [^19F]F-CNPIFE with the PET probe [^18F]F-CNPIFE. […] We hypothesize that enhanced brain uptake with additional administration of nonradioactive form of the tracer could be attributed to the binding of [^19F]F-CNBI with normally expressed GSK-3α/β in extremities and allowing relatively greater levels of [^18F]F-CNBI to be taken up by the brain as a peripheral effect.
In vivo study: Biodistribution of [^18F]F-CNBI and [^18F]F-CNPIFE were assessed in brain and in liver of normal FVB/NJ mice (The Jackson Laboratory, Bar Harbor, ME) with and without co administration of unlabeled reference compounds [^19F]F-CNBI (200 μg and 300 μg) and [^19F]F-CNPIFE (25 μg) in separate groups of animals. Stock solutions of [^19F]F-CNPIFE (26 mM) and [^19F]F-CNBI (25 mM) were prepared in the dimethyl sulfoxide (DMSO). For blocking studies with [^19F]F-CNBI, 200 μg (530.5 nmol) or 300 μg (795.8 nmol) of [^19F]F-CNBI (nonradioactive reference compound) was added to the PET probe [^18F]F-CNBI self-containing ˜9.3 nmol [^19F]F-CNBI in the final formulation volume of ˜100 μL. For blocking with [^19F]F-CNPIFE, 25 μg (59 nmol) of [^19F]F-CNPIFE was added to the PET probe [^18F]F-CNPIFE self-containing to 0.8-1.0 nmol of [^19F]F-CNPIFE in the final formulation volume of ˜100 μL. The final formulation containing both PET probes and their nonradioactive reference compounds were prepared in 0.9% saline isotonic solution before tail vein injection. Immediately after the tail vein injection of the radiotracers, animals were subjected to a dynamic micro-PET imaging for 30 min using a small animal micro-PET/X-ray system (Sofie BioSystems Genesys4, Culver City, CA, USA). The PET images were visualized and analyzed using image analysis software, Amide's a Medical Image Data Examiner—AMIDE [Ref. 29]. PET images at 5 min, 10 min, 15 min, 20 min, 25 min, and 30 min post-injection were normalized to the standardized uptake value (SUV), where SUV=(Concentration of dose in tissue (μCi/g)/(Injected dose (μCi)/Weight of the animal (g)) and presented as coronal, transverse and sagittal sectional image.

A further data set deals with GSK-3. Briefly: binding affinity comparison with previous compounds, isoform not stated. Type of data set: biochemical. The settings on record: relative to [18F]CNBI (4). The method, then: The inhibitory effect of [^18F]—CNBI (4) and [^18F]—CNPI (25) (as synthesized as described above) and [^18F]CNPIFE (28) (as synthesized as shown in FIG. 10) on kinase activity was measured. […] Determination of IC50 was determined as follows. The phosphorylation of glycogen synthase substrate by human glycogen synthase kinase α (GSK-3α) or human glycogen synthase kinase β (GSK-3β) was performed using human GSK-3α/β Kinase Enzyme Assay System (Promega Corporation, Madison, WI) in the presence of GSK-3α/β probes (0-400 nM). The phosphorylation of glycogen synthase substrate was quantified using ADP-Glo™ Kinase assay system (Promega Corporation, Madison, WI). IC50 of GSK-3α/β probes was determined from resulting dose response curve and IC50 curve fitting tool of GraphPad Prism 10 (GraphPad Software, San Diego, CA). (See Stein et al., “Comparison of [^18F]F-CNBI and [^18F]F-CNPIFE as Positron Emission Tomography Probes for Noninvasive Imaging of Glycogen Synthase Kinase-3 in Normal Mice”, Eur. J. Org. Chem. 2022).
It can be seen that [^18F]CNPIFE (28) has better purity (about 99% purity), better binding affinity (6×), and better blood brain barrier permeability (6×) compared to previous compounds such as [^18F]CNBI (4). The standard uptake is very close to 1, and to the gold standard value for [N-Methyl-^11C]2-(4′-methylaminophenyl)-6-hydroxybenzothiazole also known as [^11C] […]

For data set [5], the system named is various tau isoforms and other proteins involved in neurodegeneration. The data set is described as follows: affinity towards tau isoforms and other proteins involved in neurodegeneration. Type of data set: binding. As for the experimental part:
The affinity of [^18F]CNPIFE (28) towards various tau isoforms and other proteins involved in neurodegeneration was measured.

For data set [6] the following is noted: PAMPA, pH 7.4. From the text:
The blood brain permeability was expressed as permeability coefficient, P (10-6 cm/s) and −log Pe.

Where [7] appears, read: FVB/NJ mice, 5 min post-injection.
Where [8] appears, read: FVB/NJ mice, 15 min post-injection.
Where [9] appears, read: FVB/NJ mice, 30 min post-injection, without coadministration of reference compound.

With `O=C(Nc1cnccc1-c1ccc([18F])nc1)c1ccnc(NC(=O)C2CC2)c1` [[^18F]F-CNBI, 2-(cyclopropanecarboxamido)-N-(6-(fluoro-^18F)-[3,4′-bipyridin]-3′-yl)isonicotinamide], the “stability in human serum” value in data set [1] is reported as > 92%. Also, in data set [2], the “uptake in the brain (SUV)” value came out at 0.4 SUV. The “stability in mouse serum” value in data set [3] is reported as > 92%. In data set [4] (30 min post-injection, 200-300 μg [19F]F-CNBI), the “fold difference of brain uptake with blocking (coadministration of [19F]F-CNBI)” value is listed as 2.5-3.0 fold. In addition, the “brain uptake (SUV)” value was 0.24±0.01 SUV in data set [4] (30 min post-injection, co-injected with 300 μg [19F]F-CNBI); 0.20±0.01 SUV in data set [4] (30 min post-injection, coadministration of 200 μg [19F]F-CNBI); 0.19±0.06 SUV in data set [4] (setting [7]); 0.10±0.01 SUV in data set [4] (setting [8]); 0.08±0.005 SUV in data set [4] (setting [9]). Moreover, the “liver uptake (SUV)” value was found to be 4.93±0.52 SUV in data set [4] (co-injected with 200 μg [19F]F-CNBI); 3.89±0.60 SUV in data set [4] (co-injected with 300 μg [19F]F-CNBI); 10.15±2.87 SUV in data set [4] (same animals as brain 30 min, without coadministration of [19F]F-CNBI). Besides, in data set [4], the “effect of co-administration of the reference compound on brain uptake” value is “significant increase”.

On to `O=C(Nc1cnccc1-c1ccc(OCC[18F])cc1)c1ccnc(NC(=O)C2CC2)c1` [[^18F]F-CNPIFE], for which, in the data set on GSK-3, the “better binding affinity compared to previous compounds such as [18F]CNBI (4)” value is 6 ×. Further, the “stability in human serum” value in data set [1] is > 83%. The “uptake in the brain (SUV)” value in data set [2] was 0.9 SUV. Also, the “stability in mouse serum” value in data set [3] is given as > 83%. The “binding with various tau isoforms and other proteins involved in neurodegeneration” value in data set [5] is recorded as “no to minimum binding”. Further, the entries for the “brain uptake, fold higher than [18F]F-CNBI” value in data set [4] (5 min post-injection), in data set [4] (15 min post-injection) and in data set [4] (30 min post-injection) were 2.5 fold, 4.8 fold and 9.5 fold, respectively. Moreover, the “brain uptake (SUV)” value in data set [4] (30 min post-injection, coadministration of 25 μg [19F]F-CNPIFE) was determined as 0.88±0.14 SUV; in data set [4] (setting [7]), 0.48±0.09 SUV; in data set [4] (setting [8]), 0.48±0.11 SUV; in data set [4] (setting [9]), 0.76±0.16 SUV. For the same compound, the “effect of co-administration of the reference compound on brain uptake” value in data set [4] is “no significant difference”.

As to `CC(C)NCC(O)COc1cccc2ccccc12` (stereo not drawn) [Propranolol HCl], the “Permeability coefficient, P (10^−6 cm/s) Average ± SD” value in data set [6] was 32±1 10^−6 cm/s.

The values are drawn from US20250025581A1, “Medical Imaging of Glycogen Synthase Kinase-3 with a PET Probe” (Mayo Foundation for Medical Education and Research, priority 2021, published 2025).
